Source: patent US6664251B2, “Benzothiazine derivative” (Daiichi Suntory Pharma Co., Ltd., priority 1993, dated 2003)

What was measured:
serotonin-2 receptor = assay: Anti-serotonin action (anti-5-HT action): contraction of isolated superior mesenteric artery induced by serotonin; settings: contraction induced by 10^−5 M serotonin (5-HT) taken as 100%, Hartley male guinea pig superior mesenteric artery; for Anti 5-HT action (% of Control) 10^−6 M: test drug 10^−6 M; for Anti 5-HT action (% of Control) 10^−7 M: test drug 10^−7 M
Experimental: (1) Anti-Serotonin Action (Anti-5-HT Action)
A preparation cut in a helical form was suspended under 0.3 g load in a Magnus cylinder filled with the Tyrode solution which had been aerated with a gas mixture of 95% O2+5% CO2 and maintained at 37° C. Using an isometric transducer (“UL-10”, manufactured by SHINKOH K.K.) and a pressure preamplifier (“DSA-605A”, manufactured by SHINKOH K.K.), variations in tension were measured. The isometric tensions were recorded on a pen-writing recorder (“VP-6537A”, manufactured by NATIONAL K.K.). Taking the contraction induced by 10^−5 M serotonin (5-HT) as 100%, the percent contractions in the presence of each test drug at 10^−7 and 10^−6 M were determined as anti-5-HT action.

α1 receptor = assay: Anti-α1 action: tonic contraction of isolated thoracic aorta induced by norepinephrine; settings: tonic contraction induced by 10^−5 M norepinephrine (NE) taken as 100%, Hartley male guinea pig thoracic aorta; for Anti α1 action (% of Control) 10^−7 M: test drug 10^−7 M; for Anti α1 action (% of Control) 10^−8 M: test drug 10^−8 M
Experimental: The thoracic aorta of each Hartley male guinea pig (body weight: 300-500 g) was excised. A preparation cut in a helical form was suspended under 1 g load in a Magnus cylinder filled with the Tyrode solution which had been aerated with a gas mixture of 95% O2+5% CO2 and maintained at 37° C. Using an isometric transducer (“TB-612J”, manufactured by NIHON KOHDEN) and a pressure preamplifier (“AP-620G”, manufactured by NIHON KOHDEN), variations in tension were measured. The isometric tensions were recorded on a thermal pen-writing recorder (“WT-647G”, manufactured by NIHON KOHDEN).
Taking the tonic contraction induced by 10^−5 M norepinephrine (NE) as 100%, the percent contractions upon addition of each test drug at 10^−8 and 10^−7 M were determined as anti-α1 action.

Compound | Anti 5-HT action (% of Control) 10^−6 M (serotonin-2 receptor) | Anti 5-HT action (% of Control) 10^−7 M (serotonin-2 receptor) | Anti α1 action (% of Control) 10^−7 M (α1 receptor) | Anti α1 action (% of Control) 10^−8 M (α1 receptor)
O=S1(=O)c2ccc(Cl)cc2C2(CN1CCCN1CCN(c3ccc(F)cc3)CC1)OCCO2 [Compound No. 117, 6-chloro-2-[3-[4-(4-fluorophenyl)piperazin-1-yl]propyl]-3,4-dihydro-2H-1,2-benzothiazin-4-one 1,1-dioxide ethylene acetal] | 23.6 % of Control | 48.0 % of Control | 80.2 % of Control | 97.1 % of Control
COc1ccc2c(c1)S(=O)(=O)N(CCCN1CCC(C(=O)c3ccc(F)cc3)CC1)CC21OCCO1 [Compound No. 120, 2-[3-[4-(4-fluorobenzoyl)piperidino]propyl]-7-methoxy-3,4-dihydro-2H-1,2-benzothiazin-4-one 1,1-dioxide ethylene acetal] | 20.3 % of Control | 51.6 % of Control | 71.6 % of Control | 93.2 % of Control
COc1cccc2c1C1(CN(CCCN3CCN(c4ccc(F)cc4)CC3)S2(=O)=O)SCCS1 [Compound No. 123, 2-[3-[4-(4-fluorophenyl)piperazin-1-yl]propyl]-5-methoxy-3,4-dihydro-2H-1,2-benzothiazine-4-spiro-2′-(1′,3′-dithiolane) 1,1-dioxide] | – | 49.3 % of Control | 13.0 % of Control | 97.9 % of Control
O=S1(=O)c2ccccc2C2(CN1CCCN1CCN(c3ccccc3F)CC1)OCCO2 [compound 35, 2-[3-[4-(2-fluorophenyl)piperazin-1-yl]propyl]-3,4-dihydro-2H-1,2-benzothiazin-4-one 1,1-dioxide ethylene acetal] | 7.5 % of Control | 38.3 % of Control | 89.3 % of Control | 99.0 % of Control
